# How the values were obtained:
# GSPT1 = GSPT1 (Homo sapiens, UniProt P15170+Q96SW2); test: HiBiT degradation assay, GSPT1, Procedure A; type: cell-based; parameters: HiBit-GSPT1 KI HEK293(LgBit) Cells; host or cells: HEK293(LgBit) knock-in cells
# In short: (§1)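 Six-hour treatment at 37° C, ten doses between 10 μM and 0.005 μM, then HiBiT lytic luminescence. Fitted DC50 and Ymin.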
# CK1α = target: T1, CK1α (Homo sapiens, UniProt P48729+Q96SW2); test: HiBiT degradation assay, CK1α, Procedure A; type: cell-based
# T1 construct: CSNK1A1-HiBit KI HEK293(LgBit) Cells; host or cells: HEK293(LgBit) knock-in cells
# In short: as §1
# T1 sequence (P48729 whole entry): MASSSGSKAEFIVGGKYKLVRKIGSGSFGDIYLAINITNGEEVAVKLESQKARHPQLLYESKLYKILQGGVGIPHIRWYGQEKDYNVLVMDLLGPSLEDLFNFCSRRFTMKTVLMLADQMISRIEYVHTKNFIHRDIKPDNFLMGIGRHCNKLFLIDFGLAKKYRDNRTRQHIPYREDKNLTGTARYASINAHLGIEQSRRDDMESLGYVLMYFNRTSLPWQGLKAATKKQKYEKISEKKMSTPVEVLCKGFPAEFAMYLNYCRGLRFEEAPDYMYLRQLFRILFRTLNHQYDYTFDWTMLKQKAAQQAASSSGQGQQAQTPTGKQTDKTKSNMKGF
# T1 sequence (Q96SW2 whole entry): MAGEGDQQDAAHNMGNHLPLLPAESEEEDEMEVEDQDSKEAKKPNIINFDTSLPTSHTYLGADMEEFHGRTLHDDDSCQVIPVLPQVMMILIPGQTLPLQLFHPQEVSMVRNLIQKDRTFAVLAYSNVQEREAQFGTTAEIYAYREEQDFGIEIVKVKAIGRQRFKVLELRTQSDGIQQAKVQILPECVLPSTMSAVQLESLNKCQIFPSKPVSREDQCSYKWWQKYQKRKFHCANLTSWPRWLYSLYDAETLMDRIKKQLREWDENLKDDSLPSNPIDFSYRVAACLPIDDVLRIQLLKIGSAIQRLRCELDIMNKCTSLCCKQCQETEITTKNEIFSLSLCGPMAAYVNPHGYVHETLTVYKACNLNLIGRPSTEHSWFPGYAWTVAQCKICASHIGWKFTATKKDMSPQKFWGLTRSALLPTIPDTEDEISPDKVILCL
# T1 sequence (Q16531 whole entry partner): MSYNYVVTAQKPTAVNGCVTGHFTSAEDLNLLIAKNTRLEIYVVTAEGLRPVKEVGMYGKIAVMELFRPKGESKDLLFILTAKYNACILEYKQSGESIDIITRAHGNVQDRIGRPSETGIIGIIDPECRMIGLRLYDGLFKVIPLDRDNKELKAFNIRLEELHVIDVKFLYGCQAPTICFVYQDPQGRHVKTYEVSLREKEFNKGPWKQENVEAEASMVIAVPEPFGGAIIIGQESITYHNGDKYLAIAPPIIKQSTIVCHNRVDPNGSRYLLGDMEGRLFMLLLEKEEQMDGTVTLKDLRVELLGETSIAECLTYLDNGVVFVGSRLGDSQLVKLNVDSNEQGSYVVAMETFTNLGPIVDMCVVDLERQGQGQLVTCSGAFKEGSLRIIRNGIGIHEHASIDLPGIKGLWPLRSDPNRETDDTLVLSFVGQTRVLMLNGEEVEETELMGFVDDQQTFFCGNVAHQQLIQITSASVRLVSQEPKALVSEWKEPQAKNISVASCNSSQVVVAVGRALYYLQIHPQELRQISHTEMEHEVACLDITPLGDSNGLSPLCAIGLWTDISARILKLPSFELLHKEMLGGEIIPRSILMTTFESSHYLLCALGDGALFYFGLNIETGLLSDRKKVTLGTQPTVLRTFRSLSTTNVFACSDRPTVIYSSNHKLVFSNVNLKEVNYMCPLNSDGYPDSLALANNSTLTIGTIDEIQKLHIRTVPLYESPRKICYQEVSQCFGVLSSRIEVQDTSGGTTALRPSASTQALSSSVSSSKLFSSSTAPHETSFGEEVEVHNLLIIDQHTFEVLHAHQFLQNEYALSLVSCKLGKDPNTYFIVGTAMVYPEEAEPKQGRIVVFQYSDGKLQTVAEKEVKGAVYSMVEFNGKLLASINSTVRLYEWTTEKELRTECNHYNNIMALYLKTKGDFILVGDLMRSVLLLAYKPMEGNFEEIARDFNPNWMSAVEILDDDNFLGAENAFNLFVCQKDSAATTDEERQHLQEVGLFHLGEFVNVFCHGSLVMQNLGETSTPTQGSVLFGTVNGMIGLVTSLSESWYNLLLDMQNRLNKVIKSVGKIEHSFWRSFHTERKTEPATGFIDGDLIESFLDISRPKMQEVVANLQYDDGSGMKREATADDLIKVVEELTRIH
# Sequence of GSPT1 (P15170 whole entry): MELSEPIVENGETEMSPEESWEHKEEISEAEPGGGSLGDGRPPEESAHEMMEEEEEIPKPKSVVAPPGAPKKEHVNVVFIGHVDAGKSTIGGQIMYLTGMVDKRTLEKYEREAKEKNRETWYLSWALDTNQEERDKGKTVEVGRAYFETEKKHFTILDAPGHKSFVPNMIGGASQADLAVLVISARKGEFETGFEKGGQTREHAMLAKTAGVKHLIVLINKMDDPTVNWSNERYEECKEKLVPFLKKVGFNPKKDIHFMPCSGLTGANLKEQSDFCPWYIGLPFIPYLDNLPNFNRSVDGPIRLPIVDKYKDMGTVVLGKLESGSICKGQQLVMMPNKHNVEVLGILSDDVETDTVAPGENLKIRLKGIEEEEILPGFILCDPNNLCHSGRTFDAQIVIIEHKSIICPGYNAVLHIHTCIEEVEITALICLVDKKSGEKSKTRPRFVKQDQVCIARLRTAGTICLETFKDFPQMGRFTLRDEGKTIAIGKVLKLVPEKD
# Sequence of GSPT1 (Q96SW2 whole entry): as the sequence (Q96SW2 whole entry) above
# Sequence of GSPT1 (Q16531 whole entry partner): as the sequence (Q16531 whole entry partner) above
smiles,measurement,setting,value
Cn1ncc(-c2ccc3c(c2)CN(C2CCC(=O)NC2=O)C3=O)c1-c1cccc2c1OCC2 (stereo not drawn) [Example 105],DC50,GSPT1; six hours incubation,≥ 25 nM
same,GSPT1 Ymin,GSPT1; six hours incubation,F (F = >75-100% remaining)
same,CK1α Ymin,CK1α; six hours incubation,E (E = >25-75% remaining)
same,DC50,CK1α; six hours incubation,< 25 nM
COc1ccc(-c2c(-c3ccc4c(c3)CN(C3CCC(=O)NC3=O)C4=O)ncn2C)cc1F (stereo not drawn) [Example 194],DC50,GSPT1; six hours incubation,< 25 nM
same,GSPT1 Ymin,GSPT1; six hours incubation,E (E = >25-75% remaining)
same,CK1α Ymin,CK1α; six hours incubation,C (C = 0-10% remaining)
same,DC50,CK1α; six hours incubation,< 25 nM
Cc1cc(-c2nc(-c3ccc4c(c3)CN(C3CCC(=O)NC3=O)C4=O)cn2C)ccc1N (stereo not drawn) [Example 558],DC50,GSPT1; six hours,≥ 25 nM
same,GSPT1 Ymin,GSPT1; six hours,F (F = >75-100% remaining)
same,CK1α Ymin,CK1α; six hours,C (C = 0-10% remaining)
same,DC50,CK1α; six hours,< 25 nM
CC(C)c1ccccc1-c1c(-c2ccc3c(c2)CN(C2CCC(=O)NC2=O)C3=O)cnn1C (stereo not drawn) [Example 60],DC50,GSPT1; six hours incubation,≥ 25 nM
same,GSPT1 Ymin,GSPT1; six hours incubation,F (F = >75-100% remaining)
same,CK1α Ymin,CK1α; six hours incubation,E (E = >25-75% remaining)
same,DC50,CK1α; six hours incubation,< 25 nM
Cn1ncc(-c2ccc3c(c2)CN(C2CCC(=O)NC2=O)C3=O)c1-c1ccccc1-c1ccccc1 (stereo not drawn) [Example 145],DC50,GSPT1; six hours incubation,< 25 nM
same,GSPT1 Ymin,GSPT1; six hours incubation,F (F = >75-100% remaining)
same,CK1α Ymin,CK1α; six hours incubation,C (C = 0-10% remaining)
same,DC50,CK1α; six hours incubation,< 25 nM
Cn1ncc(-c2ccc3c(c2)CN(C2CCC(=O)NC2=O)C3=O)c1-c1ccc(Cl)c(F)c1 (stereo not drawn) [Example 90],DC50,GSPT1; six hours incubation,≥ 25 nM
same,GSPT1 Ymin,GSPT1; six hours incubation,F (F = >75-100% remaining)
same,CK1α Ymin,CK1α; six hours incubation,E (E = >25-75% remaining)
same,DC50,CK1α; six hours incubation,< 25 nM
Cn1ncc(-c2ccc3c(c2)CN(C2CCC(=O)NC2=O)C3=O)c1-c1ccc2cccnc2c1 (stereo not drawn) [Example 385],DC50,GSPT1; six hours,≥ 25 nM
same,GSPT1 Ymin,GSPT1; six hours,F (F = >75-100% remaining)
same,CK1α Ymin,CK1α; six hours,E (E = >25-75% remaining)
same,DC50,CK1α; six hours,< 25 nM
Cc1cc(Cl)ccc1-c1nc(-c2ccc3c(c2)CN(C2CCC(=O)NC2=O)C3=O)cn1C (stereo not drawn) [Example 562],DC50,GSPT1; six hours,< 25 nM
same,GSPT1 Ymin,GSPT1; six hours,F (F = >75-100% remaining)
same,CK1α Ymin,CK1α; six hours,C (C = 0-10% remaining)
same,DC50,CK1α; six hours,< 25 nM
Cc1ccc(-c2c(-c3ccc4c(c3)CN(C3CCC(=O)NC3=O)C4=O)cnn2C)cc1Cl (stereo not drawn) [Example 80],DC50,GSPT1; six hours incubation,≥ 25 nM
same,GSPT1 Ymin,GSPT1; six hours incubation,F (F = >75-100% remaining)
same,CK1α Ymin,CK1α; six hours incubation,E (E = >25-75% remaining)
same,DC50,CK1α; six hours incubation,< 25 nM
Cn1cnc(-c2ccc3c(c2)CN(C2CCC(=O)NC2=O)C3=O)c1-c1ccc(F)c(F)c1 (stereo not drawn) [Example 177],DC50,GSPT1; six hours incubation,< 25 nM
same,GSPT1 Ymin,GSPT1; six hours incubation,E (E = >25-75% remaining)
same,CK1α Ymin,CK1α; six hours incubation,D (D = >10- 25% remaining)
same,DC50,CK1α; six hours incubation,< 25 nM
COc1ccccc1-c1c(-c2ccc3c(c2)CN(C2CCC(=O)NC2=O)C3=O)ncn1C (stereo not drawn) [Example 235],DC50,GSPT1; six hours incubation,≥ 25 nM
same,GSPT1 Ymin,GSPT1; six hours incubation,F (F = >75-100% remaining)
same,CK1α Ymin,CK1α; six hours incubation,D (D = >10- 25% remaining)
same,DC50,CK1α; six hours incubation,< 25 nM
Cc1ccccc1-c1nc(-c2ccc3c(c2)CN(C2CCC(=O)NC2=O)C3=O)cn1C (stereo not drawn) [Example 571],DC50,GSPT1; six hours,< 25 nM
same,GSPT1 Ymin,GSPT1; six hours,F (F = >75-100% remaining)
same,CK1α Ymin,CK1α; six hours,C (C = 0-10% remaining)
same,DC50,CK1α; six hours,< 25 nM
Cn1cnc(-c2ccc3c(c2)CN(C2CCC(=O)NC2=O)C3=O)c1-c1ccc(Cl)cc1F (stereo not drawn) [Example 258],DC50,GSPT1; six hours incubation,≥ 25 nM
same,GSPT1 Ymin,GSPT1; six hours incubation,E (E = >25-75% remaining)
same,CK1α Ymin,CK1α; six hours incubation,D (D = >10- 25% remaining)
same,DC50,CK1α; six hours incubation,< 25 nM
Cn1cnc(-c2ccc3c(c2)CN(C2CCC(=O)NC2=O)C3=O)c1-c1ccccc1C#N (stereo not drawn) [Example 233],DC50,GSPT1; six hours incubation,≥ 25 nM
same,GSPT1 Ymin,GSPT1; six hours incubation,F (F = >75-100% remaining)
same,CK1α Ymin,CK1α; six hours incubation,D (D = >10- 25% remaining)
same,DC50,CK1α; six hours incubation,< 25 nM
"O=C1CCC(N2Cc3cc(-c4conc4-c4ccccc4)ccc3C2=O)C(=O)N1 (stereo not drawn) [Example 206, 3-(1-Oxo-5-(3-phenylisoxazol-4-yl)isoindolin-2-yl)piperidine-2,6-dione]",DC50,GSPT1; six hours incubation,≥ 25 nM
same,GSPT1 Ymin,GSPT1; six hours incubation,F (F = >75-100% remaining)
same,CK1α Ymin,CK1α; six hours incubation,E (E = >25-75% remaining)
same,DC50,CK1α; six hours incubation,≥ 25 nM
Cn1cnc(-c2ccc3c(c2)CN(C2CCC(=O)NC2=O)C3=O)c1-c1cc(Cl)ccc1C#N (stereo not drawn) [Example 272],DC50,GSPT1; six hours incubation,< 25 nM
same,GSPT1 Ymin,GSPT1; six hours incubation,F (F = >75-100% remaining)
same,CK1α Ymin,CK1α; six hours incubation,E (E = >25-75% remaining)
same,DC50,CK1α; six hours incubation,< 25 nM
Cc1nocc1-c1c(-c2ccc3c(c2)CN(C2CCC(=O)NC2=O)C3=O)ncn1C (stereo not drawn) [Example 320],DC50,GSPT1; six hours incubation,≥ 25 nM
same,GSPT1 Ymin,GSPT1; six hours incubation,F (F = >75-100% remaining)
same,CK1α Ymin,CK1α; six hours incubation,D (D = >10- 25% remaining)
same,DC50,CK1α; six hours incubation,< 25 nM
Cc1ccc(F)c(-c2c(-c3ccc4c(c3)CN(C3CCC(=O)NC3=O)C4=O)ncn2C)c1 (stereo not drawn) [Example 170],DC50,GSPT1; six hours incubation,≥ 25 nM
same,GSPT1 Ymin,GSPT1; six hours incubation,F (F = >75-100% remaining)
same,CK1α Ymin,CK1α; six hours incubation,D (D = >10- 25% remaining)
same,DC50,CK1α; six hours incubation,< 25 nM
Cn1cnc(-c2ccc3c(c2)CN(C2CCC(=O)NC2=O)C3=O)c1-c1cnn(C2CC2)c1 (stereo not drawn) [Example 326],DC50,GSPT1; six hours incubation,< 25 nM
same,GSPT1 Ymin,GSPT1; six hours incubation,F (F = >75-100% remaining)
same,CK1α Ymin,CK1α; six hours incubation,C (C = 0-10% remaining)
same,DC50,CK1α; six hours incubation,< 25 nM
Cc1occc1-c1c(-c2ccc3c(c2)CN(C2CCC(=O)NC2=O)C3=O)cnn1C (stereo not drawn) [Example 364],DC50,GSPT1; six hours incubation,≥ 25 nM
same,GSPT1 Ymin,GSPT1; six hours incubation,F (F = >75-100% remaining)
same,CK1α Ymin,CK1α; six hours incubation,D (D = >10- 25% remaining)
same,DC50,CK1α; six hours incubation,≥ 25 nM
COc1ccc(F)cc1-c1c(-c2ccc3c(c2)CN(C2CCC(=O)NC2=O)C3=O)ncn1C (stereo not drawn) [Example 191],DC50,GSPT1; six hours incubation,< 25 nM
same,GSPT1 Ymin,GSPT1; six hours incubation,E (E = >25-75% remaining)
same,CK1α Ymin,CK1α; six hours incubation,E (E = >25-75% remaining)
same,DC50,CK1α; six hours incubation,< 25 nM
Cn1cnc(-c2ccc3c(c2)CN(C2CCC(=O)NC2=O)C3=O)c1-c1ccc(-c2ccc(O)cc2)cc1 (stereo not drawn) [Example 298],DC50,GSPT1; six hours incubation,≥ 25 nM
same,GSPT1 Ymin,GSPT1; six hours incubation,F (F = >75-100% remaining)
same,CK1α Ymin,CK1α; six hours incubation,E (E = >25-75% remaining)
same,DC50,CK1α; six hours incubation,< 25 nM
Cc1ccccc1-c1c(-c2ccc3c(c2)CN(C2CCC(=O)NC2=O)C3=O)ncn1C (stereo not drawn) [Example 161],DC50,GSPT1; six hours incubation,≥ 25 nM
same,GSPT1 Ymin,GSPT1; six hours incubation,F (F = >75-100% remaining)
same,CK1α Ymin,CK1α; six hours incubation,D (D = >10- 25% remaining)
same,DC50,CK1α; six hours incubation,< 25 nM
Cn1cnc(-c2ccc3c(c2)CN(C2CCC(=O)NC2=O)C3=O)c1-c1ccc2nccnc2c1 (stereo not drawn) [Example 494],DC50,GSPT1; six hours,≥ 25 nM
same,GSPT1 Ymin,GSPT1; six hours,F (F = >75-100% remaining)
same,CK1α Ymin,CK1α; six hours,E (E = >25-75% remaining)
same,DC50,CK1α; six hours,≥ 25 nM
"O=C1CCC(N2Cc3cc(-c4cnn(C(F)F)c4-c4ccccc4)ccc3C2=O)C(=O)N1 (stereo not drawn) [Example 27, 3-(5-(1-(difluoromethyl)-5-phenyl-1H-pyrazol-4-yl)-1-oxoisoindolin-2-yl)piperidine-2,6-dione]",DC50,GSPT1; six hours incubation,≥ 25 nM
same,GSPT1 Ymin,GSPT1; six hours incubation,F (F = >75-100% remaining)
same,CK1α Ymin,CK1α; six hours incubation,D (D = >10- 25% remaining)
same,DC50,CK1α; six hours incubation,< 25 nM
CN1CCN(Cc2cccc(-c3c(-c4ccc5c(c4)CN(C4CCC(=O)NC4=O)C5=O)ncn3C)c2)CC1 (stereo not drawn) [Example 312],DC50,GSPT1; six hours incubation,≥ 25 nM
same,GSPT1 Ymin,GSPT1; six hours incubation,F (F = >75-100% remaining)
same,CK1α Ymin,CK1α; six hours incubation,D (D = >10- 25% remaining)
same,DC50,CK1α; six hours incubation,≥ 25 nM
Cn1ncc(-c2ccc3c(c2)CN(C2CCC(=O)NC2=O)C3=O)c1-c1ccc2nc[nH]c2c1 (stereo not drawn) [Example 460],DC50,GSPT1; six hours,≥ 25 nM
same,GSPT1 Ymin,GSPT1; six hours,F (F = >75-100% remaining)
same,CK1α Ymin,CK1α; six hours,D (D = >10- 25% remaining)
same,DC50,CK1α; six hours,≥ 25 nM
Cn1ncc(-c2ccc3c(c2)CN(C2CCC(=O)NC2=O)C3=O)c1-c1ccc(-c2cccnc2)cc1 (stereo not drawn) [Example 103],DC50,GSPT1; six hours incubation,≥ 25 nM
same,GSPT1 Ymin,GSPT1; six hours incubation,F (F = >75-100% remaining)
same,CK1α Ymin,CK1α; six hours incubation,D (D = >10- 25% remaining)
same,DC50,CK1α; six hours incubation,< 25 nM
COc1ccc(-c2c(-c3ccc4c(c3)CN(C3CCC(=O)NC3=O)C4=O)ncn2C)c(Cl)c1 (stereo not drawn) [Example 273],DC50,GSPT1; six hours incubation,< 25 nM
same,GSPT1 Ymin,GSPT1; six hours incubation,E (E = >25-75% remaining)
same,CK1α Ymin,CK1α; six hours incubation,C (C = 0-10% remaining)
same,DC50,CK1α; six hours incubation,< 25 nM
Cc1ccc(F)c(-c2c(-c3ccc4c(c3)CN(C3CCC(=O)NC3=O)C4=O)cnn2C)c1 (stereo not drawn) [Example 89],DC50,GSPT1; six hours incubation,≥ 25 nM
same,GSPT1 Ymin,GSPT1; six hours incubation,F (F = >75-100% remaining)
same,CK1α Ymin,CK1α; six hours incubation,E (E = >25-75% remaining)
same,DC50,CK1α; six hours incubation,< 25 nM
